Test [1] concerns the target T1, Prostaglandin G/H synthase 1 (Ovis aries, UniProt P05979).
T1 sequence (P05979 whole entry): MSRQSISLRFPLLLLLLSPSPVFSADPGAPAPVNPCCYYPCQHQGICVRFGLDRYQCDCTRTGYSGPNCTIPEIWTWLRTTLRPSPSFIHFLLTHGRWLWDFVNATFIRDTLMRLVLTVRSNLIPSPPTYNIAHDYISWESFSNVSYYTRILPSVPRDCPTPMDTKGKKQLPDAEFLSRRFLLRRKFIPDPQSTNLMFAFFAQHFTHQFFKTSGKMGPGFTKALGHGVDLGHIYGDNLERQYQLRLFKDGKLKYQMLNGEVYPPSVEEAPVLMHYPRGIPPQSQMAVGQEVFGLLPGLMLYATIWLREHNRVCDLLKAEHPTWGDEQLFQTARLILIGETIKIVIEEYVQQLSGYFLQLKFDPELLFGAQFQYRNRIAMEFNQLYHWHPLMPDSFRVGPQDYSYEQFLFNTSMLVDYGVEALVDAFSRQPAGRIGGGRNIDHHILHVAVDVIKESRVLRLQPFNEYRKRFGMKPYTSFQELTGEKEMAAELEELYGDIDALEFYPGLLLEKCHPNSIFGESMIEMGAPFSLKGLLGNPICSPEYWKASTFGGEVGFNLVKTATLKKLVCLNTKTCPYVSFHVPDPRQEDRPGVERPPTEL
The experiment in a line: Inhibition of ovine COX1 pre-incubated for 15 mins followed by addition of heme and fluorometric substrate and further incubated for 15 mins in presence of arachidonic acid by fluorescence based assay.

Test [2] addresses T2, Prostaglandin G/H synthase 2 (Homo sapiens, UniProt P35354).
T2 sequence (P35354 whole entry): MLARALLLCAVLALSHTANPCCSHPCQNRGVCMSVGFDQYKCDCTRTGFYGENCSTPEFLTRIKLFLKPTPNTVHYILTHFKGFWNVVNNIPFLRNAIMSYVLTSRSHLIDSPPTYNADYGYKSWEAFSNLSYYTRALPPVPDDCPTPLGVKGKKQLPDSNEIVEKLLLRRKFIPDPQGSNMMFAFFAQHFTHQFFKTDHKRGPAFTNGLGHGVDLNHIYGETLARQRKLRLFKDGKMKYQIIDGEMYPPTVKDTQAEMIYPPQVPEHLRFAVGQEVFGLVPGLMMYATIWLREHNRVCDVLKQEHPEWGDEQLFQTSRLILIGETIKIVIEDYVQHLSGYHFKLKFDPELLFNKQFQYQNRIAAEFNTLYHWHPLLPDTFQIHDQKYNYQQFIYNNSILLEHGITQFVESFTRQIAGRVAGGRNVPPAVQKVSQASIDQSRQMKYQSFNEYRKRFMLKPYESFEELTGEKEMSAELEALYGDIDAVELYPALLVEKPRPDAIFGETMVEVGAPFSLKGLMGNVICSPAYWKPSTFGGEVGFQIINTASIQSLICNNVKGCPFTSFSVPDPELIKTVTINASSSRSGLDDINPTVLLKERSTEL
The experiment in a line: Inhibition of human recombinant COX2 pre-incubated for 15 mins followed by addition of heme and fluorometric substrate and further incubated for 15 mins in presence of arachidonic acid by fluorescence based assay.

As a reminder, the IC50 is the point on the concentration scale where inhibition reaches its midpoint. In the case of `CCO[C@@]1(c2ccc(O)c(O)c2)Oc2ccc(CCO)cc2O[C@@H]1O`, the IC50 entry is “Not Active” in test [1] and 2.52 µM in test [2].
For the compound `CCOC1(c2ccc(O)c(O)c2)Oc2ccc(CCO)cc2OC1O` (stereo unspecified), the concentration for half-maximal inhibition (IC50) entry was “Not Active” in test [1] and 6.04 µM in test [2].
On the same counts, the results for `CO[C@@]1(c2ccc(O)c(O)c2)Oc2ccc(CCO)cc2O[C@@H]1O` are “Not Active” and 8.24 µM.
With `CO[C@]1(c2ccc(O)c(O)c2)Oc2ccc(CCO)cc2O[C@H]1O`, the results for the IC50 result in test [1] and in test [2] were “Not Active” and 6.02 µM, respectively.
On the same counts, the results for `CCO[C@@]1(c2ccc(O)c(O)c2)Oc2cc(CCO)ccc2O[C@@H]1O` are “Not Active” and 13.7 µM.
On to `CCO[C@]1(c2ccc(O)c(O)c2)Oc2cc(CCO)ccc2O[C@H]1O`, for which the half-maximal inhibitory concentration (IC50) entry was “Not Active” in test [1] and 8.6 µM in test [2].
Turning to `CO[C@@]1(c2ccc(O)c(O)c2)Oc2cc(CCO)ccc2O[C@@H]1O`, the IC50 entry was “Not Active” in test [1] and 17.8 µM in test [2].
On the same counts, the results for `CO[C@]1(c2ccc(O)c(O)c2)Oc2cc(CCO)ccc2O[C@H]1O` are “Not Active” and 9.7 µM.
The corresponding values for `CC(=O)NCCc1ccc2c(c1)O[C@H](NC(C)=O)[C@@H](c1ccc(O)c(O)c1)O2` are “Not Active” and 2.6 µM.
`CC(=O)NCCc1ccc2c(c1)O[C@H](c1ccc(O)c(O)c1)[C@@H](NC(C)=O)O2` (relative stereo): the IC50 entry in test [1] was “Not Active”; in test [2], 3.6 µM.
On to `CC(=O)N[C@H]1Oc2cc(CCO)ccc2O[C@@H]1c1ccc(O)c(O)c1` (relative stereo), for which the half-maximal inhibitory concentration (IC50) result in test [1] is “Not Active”; in test [2] it was 1.3 µM.
As for `CC(=O)N[C@H]1Oc2ccc(CCO)cc2O[C@@H]1c1ccc(O)c(O)c1` (relative stereo), the IC50 entry in test [1] was “Not Active”; in test [2], 2.5 µM.
On to `CC(=O)/N=C/Cc1ccc2c(c1)O[C@H](c1ccc(O)c(O)c1)[C@@H](NC(C)=O)O2` (relative stereo), for which the concentration for half-maximal inhibition (IC50) worked out at 13.8 µM in test [1] (read-out: IC50) and 2.7 µM in test [2].

Source of the values: ChEMBL document CHEMBL3425477, “Compounds from the insect Blaps japanensis with COX-1 and COX-2 inhibitory activities” (Bioorg Med Chem Lett, 2015).
